2 compounds from patent US20230074545A1, “TREATMENT OF CANCER WITH CDK12/13 INHIBITORS” (Kinnate Biopharma Inc., priority 2019, published 2023) can be followed below.

The test system of experiment [1] is RNA polymerase II. Nature of the experiment: Inhibition of phosphorylation of RNA polymerase II in NCI-H82 cells. Format: cell-based. As to conditions: Homo sapiens, 2 hours, phosphorylated/total RNA polymerase II. As for the experimental part: CDK12 and CDK13 phosphorylate RNA polymerase II. The ability of compound 1 to inhibit phosphorylation of RNA polymerase II was analyzed in NCI-H82 cells. 200,000 cells were plated in each well of a 96 well MSD plate. Cells were treated with compound 1, THZ531 (a positive control), or E9 at concentrations between 4 μM to 126.4 pM (0.5 log serial dilutions) for 2 hours. THZ531 and E9 are further discussed in Gao et al, Cell Chemical Biology 2017. The amount of phosphorylated RNA polymerase II and the total amount of RNA polymerase II was analyzed using antibodies. The values were normalized by taking the ratio of the phosphorylated RNA polymerase II to the total RNA polymerase II. As depicted in FIG. 3A (THZ531), FIG. 3B (Compound 1), and Table 6, increasing the concentration of compound 1 results in a dose-specific increase in the inhibition of phosphorylation of RNA polymerase II.

Experiment [2] deals with HCC70 tumors. Description: HCC70 mouse xenograft model of triple-negative breast cancer. Format: in vivo, CB-17 SCID female mice. As to conditions: compared to vehicle control. From the text: To test the efficacy of the compounds in vivo, studies were done in mouse xenografts. For all studies, general procedures for animal care and housing were done in accordance with the standard, Commission on Life Sciences, National Research Council, Standard operating procedures (SOPs) of Pharmaron, Inc (Beijing, China). The mice were kept in laminar flow rooms at constant temperature and humidity with 3-5 mice in each cage with bedding changed once weekly. Animals were housed in polycarbonate cage which is in the size of 300×180×150 mm^3 and in an environmentally monitored, well-ventilated room maintained at a temperature of (22±3° C.) and a relative humidity of 40%-70% on a 12 hour:12 hour light:dark cycle with full spectrum lighting. […]
Each mouse was inoculated subcutaneously on the right flank with HCC70 tumor cells (5×10^6) in 0.1 ml of RPMI-1640 Medium and Matrigel mixture (1:1 ratio) for tumor development. […] All study animals were monitored not only tumor growth but also behavior such as mobility, food and water consumption (by cage side checking only), body weight (BW), eye/hair matting and any other abnormal effect. Any mortality and/or abnormal clinical signs were recorded.
The measurement of tumor size was conducted twice weekly with a caliper and recorded. […]
Protocol-required measurements and observations were recorded manually onto excel spread sheets. […]

The test system of experiment [3] is RNA polymerase II. Description: Phosphorylation of RNA polymerase II (pS2/S2) in HCC70 xenograft. Conditions: intravenous; compound 4 20 or 25 mg/kg, compound 5 10 or 25 mg/kg; 0.5, 6 and 24 hours after the dose. Format: in vivo, CB-17 SCID mice. The method, then:
The ability of compound 4 and compound 5 to inhibit phosphorylation of RNA polymerase II at the S2 unit was analyzed in a mouse xenograft model of triple-negative breast cancer. CB-17 SCID mice were inoculated with the HCC70 cells as the in vivo model for triple negative breast cancer. Each mouse was inoculated subcutaneously on the right flank with HCC70 tumor cells (5×106) in 0.1 mL of RPMI-1640 Medium and Matrigel mixture (1:1 ratio) for tumor development. The treatment started when the mean tumor size reached approximately 100-150 mm^3. Mice were treated intravenously with vehicle only, 20 mg/kg of compound 4, 25 mg/kg of compound 4, 10 mg/kg of compound 5, or 25 mg/kg of compound 5 for 2 hours. Measurements were taken at 0.5 hours, 6 hours and 24 hours after the dose. The amount of phosphorylated RNA polymerase II and the total amount of RNA polymerase II was analyzed. The values were normalized by taking the ratio of the phosphorylated RNA polymerase II to the total RNA polymerase II (pS2/S2).

The test system of experiment [4] is non-CDK12/13 kinases. Description: Radiometric kinase panel, summary. Format: biochemical, human. Conditions: 1 μM. The method, then: The compounds 1-5 (see Table 1) were assayed for kinase activity at ProQinase (ProQinase GmbH, Reaction Biology; Freiburg, Germany) using their commercially available radiometric kinase assay services. Briefly, the compounds were provided as solids and were dissolved to 1×10^−03 M/100% DMSO stock solutions on the day of assay. All protein kinases were provided by ProQinase and were expressed in Sf9 insect cells or in E. coli as recombinant GST-fusion proteins or His-tagged proteins, either as full-length or enzymatically active fragments. All kinases were produced from human cDNAs and purified by either GSH-affinity chromatography or immobilized metal. The purity of the protein kinases was examined by SDS-PAGE/Coomassie staining, the identity was checked by mass spectroscopy. A radiometric protein kinase assay (^33PanQinase® Activity Assay) was used for measuring the kinase activity of the protein kinase. All kinase assays were performed in 96-well FlashPlates™ from PerkinElmer (Boston, Mass., USA) in a 50 microliter reaction volume. […]
Compound 4 was analyzed for selectivity against a panel of other kinases at ProQinase using their commercially available radiometric kinase assay services and the methods described in Example 1.

Molecules are shown by their SMILES.

Regarding `C=CC(=O)Nc1ccc(C(=O)N2CC[C@@H](Nc3ncc(Cl)c(OC)n3)C2)cc1` [Compound 1, (R)-N-(4-(3-((5-chloro-4-methoxypyrimidin-2-yl)amino)pyrrolidine-1-carbonyl)phenyl)acrylamide], inhibition in experiment [1] was half-maximal at 12.5 nM (IC50).

Consider `C=CC(=O)Nc1ccc(C(=O)N2CC[C@@H](Nc3ncc(C#N)cn3)C2)cc1` [Compound 4, (R)-N-(4-(3-((5-cyanopyrimidin-2-yl)amino)pyrrolidine-1-carbonyl)phenyl)acrylamide], for which the T/C was −37% in experiment [2] (20 mg/kg intravenously biweekly for 14 days) and −39% in experiment [2] (25 mg/kg intravenously biweekly for 14 days). In experiment [3], the “pS2/S2 compared to treatment with the vehicle alone” value was “reduced the pS2/S2 at all time points”. Further, the “average percent of inhibition against non-CDK12/13 kinases” value in experiment [4] is given as “low average percent of inhibition”.

For orientation: IC50 means the concentration at which inhibition is half-maximal. Read a high IC50 as lower potency.
